Values joined by “and” are separate entries in the source; they are usually repeats but may differ in a detail not shown here. Identical values can stand only once. Toxic doses and inconclusive results are not listed.

The experiment has as its system AKR/Lw mice, AKR lymphoma ip, median survival T/C. As to the kind of experiment: NCI In Vivo Anticancer Drug Screen. Data for tumor model Lymphoma AKR (Transplanted) (intraperitoneal) in AKR/Lw mice. To be noted: endpoint: median survival time, higher = longer survival. The procedure:
The antitumor activity of compounds was measured in mice bearing transplantable tumors. Survival or tumor size were measured and the results are expressed as the measurement made in the treated group (T) divided by the measurement made in the vehicle treated control group (C). The tumor model used in this assay is Lymphoma AKR (Transplanted) (intraperitoneal) in AKR/Lw mice

Setting [1] is: dose: 100.0 mg/kg/injection, schedule: Q01DX001 (ip), vehicle: saline.
[2] abbreviates: dose: 200.0 mg/kg/injection, schedule: Q01DX001 (ip), vehicle: Klucel (hydroxypropylcellulose) (HPC).
The mark [3] stands for this setting: dose: 200.0 mg/kg/injection, schedule: Q01DX001 (ip), vehicle: saline.
The mark [4] stands for this setting: dose: 400.0 mg/kg/injection, schedule: Q01DX001 (ip), vehicle: Klucel (hydroxypropylcellulose) (HPC).
[5] abbreviates: dose: 400.0 mg/kg/injection, schedule: Q01DX001 (ip), vehicle: saline.
Where [6] appears, read: dose: 1.5 mg/kg/injection, schedule: Q01DX001 (ip), vehicle: saline.
Setting [7] is: dose: 25.0 micrograms/kg/injection, schedule: Q01DX009 (ip), vehicle: saline.
Setting [8] is: dose: 50.0 micrograms/kg/injection, schedule: Q01DX009 (ip), vehicle: saline.
Setting [9] is: dose: 100.0 micrograms/kg/injection, schedule: Q01DX009 (ip), vehicle: saline.

For the compound `C1CC2C(CCCC23OCCO3)C2(C1)OCCO2` (stereo not given), the T/C is 103 % of control (dose: 100.0 mg/kg/injection, schedule: Q01DX001 (ip), vehicle: Klucel (hydroxypropylcellulose) (HPC)); 106 % of control under setting [1]; 96 % of control under setting [2]; 106 % of control under setting [3]; 93 % of control under setting [4]; 113 % of control under setting [5].

On to `c1ccc2c(c1)CNC2`, for which the T/C by setting is: under setting [1], 97 % of control; under setting [3], 123 % of control; under setting [5], 111 % of control.

For the compound `CC(C)c1c[nH]c(=O)[nH]c1=O`, the T/C is, setting by setting: (dose: 25.0 mg/kg/injection, schedule: Q04DX003 (ip), vehicle: Klucel (hydroxypropylcellulose) (HPC)) 97 % of control; (dose: 50.0 mg/kg/injection, schedule: Q04DX003 (ip), vehicle: Klucel (hydroxypropylcellulose) (HPC)) 94 % of control; (dose: 100.0 mg/kg/injection, schedule: Q04DX003 (ip), vehicle: Klucel (hydroxypropylcellulose) (HPC)) 94 % of control; under setting [2], 86 % of control; under setting [4], 92 % of control.

Regarding `C/C=C(/Cl)c1c(C)cc(C)c(CC(=O)O)c1C`, the T/C was 106 % of control under setting [2] and 109 % of control under setting [4].

On to `S=P(N1CC1)(N1CC1)N1CC1`, for which the T/C was 110 % of control (dose: 0.1 mg/kg/injection, schedule: Q01DX009 (ip), vehicle: saline); 87 % of control (dose: 0.25 mg/kg/injection, schedule: Q01DX009 (ip), vehicle: saline); 90 % of control (dose: 0.5 mg/kg/injection, schedule: Q01DX009 (ip), vehicle: saline); 117 % of control (dose: 0.5 mg/kg/injection, schedule: Q04DX003 (ip), vehicle: saline); 108 % of control and 112 % of control and 117 % of control (dose: 1.0 mg/kg/injection, schedule: Q01DX009 (ip), vehicle: saline); 120 % of control (dose: 1.0 mg/kg/injection, schedule: Q04DX003 (ip), vehicle: saline). For the same compound, the T/C (dose: 1.2 mg/kg/injection, schedule: Q04DX003 (ip), vehicle: saline) is 100 % of control; the T/C under setting [6] is 106 % of control; the T/C (dose: 2.0 mg/kg/injection, schedule: Q01DX009 (ip), vehicle: saline) was 111 % of control; the T/C (dose: 2.5 mg/kg/injection, schedule: Q01DX001 (ip), vehicle: saline) is 104 % of control; the T/C (dose: 2.5 mg/kg/injection, schedule: Q04DX003 (ip), vehicle: saline) was 87 % of control and 112 % of control and 117 % of control; the T/C (dose: 3.0 mg/kg/injection, schedule: Q01DX001 (ip), vehicle: saline) was 109 % of control. In addition, the T/C reads like this: (dose: 3.0 mg/kg/injection, schedule: Q04DX003 (ip), vehicle: saline) 122 % of control; (dose: 3.75 mg/kg/injection, schedule: Q01DX009 (ip), vehicle: saline) 116 % of control; (dose: 5.0 mg/kg/injection, schedule: Q01DX001 (ip), vehicle: saline) 95 % of control and 100 % of control and 103 % of control; (dose: 6.0 mg/kg/injection, schedule: Q01DX001 (ip), vehicle: saline) 104 % of control and 106 % of control; (dose: 6.2 mg/kg/injection, schedule: Q01DX001 (ip), vehicle: saline) 118 % of control; (dose: 6.25 mg/kg/injection, schedule: Q01DX001 (ip), vehicle: saline) 123 % of control. Also, the T/C is, setting by setting: (dose: 7.5 mg/kg/injection, schedule: Q01DX001 (ip), vehicle: saline) 102 % of control and 116 % of control; (dose: 7.5 mg/kg/injection, schedule: Q01DX009 (ip), vehicle: saline) 105 % of control; (dose: 10.0 mg/kg/injection, schedule: Q01DX001 (ip), vehicle: saline) 111 % of control; (dose: 10.0 mg/kg/injection, schedule: Q04DX003 (ip), vehicle: saline) 87 % of control; (dose: 15.0 mg/kg/injection, schedule: Q01DX009 (ip), vehicle: saline) 88 % of control; (dose: 16.0 mg/kg/injection, schedule: Q04DX003 (ip), vehicle: saline) 97 % of control. Moreover, the T/C by setting is: (dose: 12.0 micrograms/kg/injection, schedule: Q01DX009 (ip), vehicle: saline) 111 % of control; (dose: 12.5 micrograms/kg/injection, schedule: Q01DX009 (ip), vehicle: saline) 102 % of control; under setting [7], 100 % of control and 111 % of control; under setting [8], 105 % of control; under setting [9], 94 % of control and 108 % of control; (dose: 200.0 micrograms/kg/injection, schedule: Q01DX009 (ip), vehicle: saline) 102 % of control.

In the case of `C1CN1c1nc(N2CC2)nc(N2CC2)n1`, the T/C is, setting by setting: (dose: 0.01 mg/kg/injection, schedule: Q04DX003 (ip), vehicle: saline) 102 % of control; (dose: 0.02 mg/kg/injection, schedule: Q01DX009 (ip), vehicle: saline) 115 % of control; (dose: 0.02 mg/kg/injection, schedule: Q04DX003 (ip), vehicle: saline) 111 % of control; (dose: 0.03 mg/kg/injection, schedule: Q01DX009 (ip), vehicle: saline) 109 % of control; (dose: 0.03 mg/kg/injection, schedule: Q04DX003 (ip), vehicle: saline) 86 % of control and 102 % of control; (dose: 0.05 mg/kg/injection, schedule: Q01DX009 (ip), vehicle: saline) 115 % of control. Besides, the T/C (dose: 0.05 mg/kg/injection, schedule: Q04DX003 (ip), vehicle: saline) was 100 % of control; the T/C (dose: 0.06 mg/kg/injection, schedule: Q01DX009 (ip), vehicle: saline) is 101 % of control and 109 % of control; the T/C (dose: 0.06 mg/kg/injection, schedule: Q04DX003 (ip), vehicle: saline) is 93 % of control and 97 % of control and 107 % of control; the T/C (dose: 0.1 mg/kg/injection, schedule: Q04DX003 (ip), vehicle: saline) was 113 % of control; the T/C (dose: 0.12 mg/kg/injection, schedule: Q01DX001 (ip), vehicle: saline) is 106 % of control; the T/C (dose: 0.2 mg/kg/injection, schedule: Q04DX003 (ip), vehicle: saline) is 115 % of control and 122 % of control. The T/C was 106 % of control and 111 % of control (dose: 0.25 mg/kg/injection, schedule: Q01DX001 (ip), vehicle: saline); 121 % of control (dose: 0.3 mg/kg/injection, schedule: Q04DX003 (ip), vehicle: saline); 120 % of control (dose: 0.35 mg/kg/injection, schedule: Q04DX003 (ip), vehicle: saline); 105 % of control (dose: 0.37 mg/kg/injection, schedule: Q01DX001 (ip), vehicle: saline); 116 % of control (dose: 0.6 mg/kg/injection, schedule: Q01DX009 (ip), vehicle: saline); 105 % of control and 115 % of control (dose: 0.75 mg/kg/injection, schedule: Q01DX001 (ip), vehicle: saline). Further, the T/C was 188 % of control (dose: 0.8 mg/kg/injection, schedule: Q04DX003 (ip), vehicle: saline); 93 % of control (dose: 1.2 mg/kg/injection, schedule: Q01DX009 (ip), vehicle: saline); 123 % of control under setting [6]; 93 % of control (dose: 2.5 mg/kg/injection, schedule: Q01DX009 (ip), vehicle: saline); 113 % of control (dose: 15.0 micrograms/kg/injection, schedule: Q01DX009 (ip), vehicle: saline); 102 % of control under setting [7]. Moreover, the T/C (dose: 30.0 micrograms/kg/injection, schedule: Q01DX009 (ip), vehicle: saline) is 115 % of control; the T/C under setting [8] was 111 % of control; the T/C under setting [9] was 116 % of control; the T/C (dose: 120.0 micrograms/kg/injection, schedule: Q01DX009 (ip), vehicle: saline) was 107 % of control; the T/C (dose: 250.0 micrograms/kg/injection, schedule: Q01DX009 (ip), vehicle: saline) was 105 % of control.

In the case of `CN(C)C(C)(C)CNc1ccc(C(=O)O)cc1`, the T/C runs as follows: (dose: 25.0 mg/kg/injection, schedule: Q01DX001 (ip), vehicle: saline) 88 % of control; (dose: 50.0 mg/kg/injection, schedule: Q01DX001 (ip), vehicle: saline) 91 % of control and 95 % of control; under setting [1], 97 % of control and 91 % of control.

In the case of `O=C1CCSCCN1`, the T/C by setting is: under setting [1], 95 % of control; under setting [3], 86 % of control.
